Data reported in patent US20130274174A1, “THERAPEUTIC COMBINATION OF DAPTOMYCIN AND PROTEIN SYNTHESIS INHIBITOR ANTIBIOTIC, AND METHODS OF USE” (priority 2011, published 2013).
≈ marks a conversion by molar mass, not a printed value. Read-outs that look alike come from different tables or passages of the source.

Tested on: S. aureus MW2 (NRS123)
Experiment: microbe, parasite or virus in culture
Assay type: cell-based, Staphylococcus aureus
Conditions: Staphylococcus aureus
Protocol: S. aureus strains MW2 (NARSA collection clinical MRSA isolate, NRS123) and ATCC 33591 (MRSA strain from the American Type Culture Collection) were cultured on Mueller-Hinton II cation adjusted (MHA) medium in 90×90 mm square petri dishes. MHA containing ¼ of the MIC value of TR-700, TR-705, LZD, TIA, CLI, TET, or VAN, TMP/SMX throughout the plate and a continuous linear gradient of DAP across the plate was used to passage MW2. ATCC 33591 was passaged with ¼ of the MIC of a subset of these drugs (TR-700, TMP/SMX, and VAN). A DAP-only control passage group was included for both strains. DAP gradients were created by pouring two layers of media as previously described (Bryson, V., et al. 1952. Microbial selection. Science 116:45-51; Locke, J. B., et al., 2009. Antimicrob. Agents Chemother. 53:5265-5274). Following each passage the leading edge of growth (i.e., most resistant cells) was resuspended in phosphate buffered saline (PBS) to an absorbance of 0.30 OD600 and a 100 μl aliquot containing ˜3.0×10^7 CFU (colony-forming units) was spread on to the proceeding passage plate. The starting maximal DAP concentration was 2 μg/ml and was increased in two-fold increments when the leading edge of growth surpassed the half way point on the plate. A glycerol stock was made from the total cell population for each culture condition for each passage. Thirty serial passages were completed for each treatment group.

**Q.** With CCC[C@@H]1C[C@@H](C(=O)N[C@@H]([C@H]2O[C@H](SC)[C@H](O)[C@@H](O)[C@H]2O)[C@H](C)Cl)N(C)C1 [CLI, clindamycin] as the molecule, how does the MIC (NRS123, passage 0, NRS123 WT) read?
**A.** The MIC was 0.125 µg/mL (≈ 0.294 µM).

**Q.** And the MIC (NRS123, passage 5, selection group DAP)?
**A.** Its MIC is 0.125 µg/mL (≈ 0.294 µM).

**Q.** And the MIC (NRS123, passage 5, selection group DAP + CLI)?
**A.** Its MIC is 0.0625 µg/mL.

**Q.** What about the MIC (NRS123, passage 5, selection group DAP + LZD) of the same molecule?
**A.** Its MIC is 0.0625 µg/mL.

**Q.** And the MIC (NRS123, passage 5, selection group DAP + TET)?
**A.** Its MIC is 0.125 µg/mL.

**Q.** What about the MIC (NRS123, passage 5, selection group DAP + TIA) of the same molecule?
**A.** Its MIC is 0.125 µg/mL.

**Q.** What about the MIC (NRS123, passage 5, selection group DAP + TMP/SMX) of the same molecule?
**A.** Its MIC is 0.125 µg/mL.

**Q.** What about the MIC (NRS123, passage 5, selection group DAP + TR-700) of the same molecule?
**A.** The MIC was 0.125 µg/mL.

**Q.** What about the MIC (NRS123, passage 5, selection group DAP + TR-705) of the same molecule?
**A.** Its MIC is 0.0625 µg/mL.

**Q.** And the MIC (NRS123, passage 5, selection group DAP + VAN)?
**A.** The MIC was 0.125 µg/mL.

**Q.** And the MIC (NRS123, passage 10, selection group DAP)?
**A.** Its MIC is 0.125 µg/mL (≈ 0.294 µM).

**Q.** And the MIC (NRS123, passage 10, selection group DAP + CLI)?
**A.** Its MIC is 0.0625 µg/mL.

**Q.** And the MIC (NRS123, passage 10, selection group DAP + LZD)?
**A.** Its MIC is 0.0625 µg/mL.

**Q.** And the MIC (NRS123, passage 10, selection group DAP + TET)?
**A.** The MIC was 0.0625 µg/mL.

**Q.** What about the MIC (NRS123, passage 10, selection group DAP + TIA) of the same molecule?
**A.** Its MIC is 0.125 µg/mL.

**Q.** What about the MIC (NRS123, passage 10, selection group DAP + TMP/SMX) of the same molecule?
**A.** The MIC was 0.125 µg/mL.

**Q.** And the MIC (NRS123, passage 10, selection group DAP + TR-700)?
**A.** The MIC was 0.125 µg/mL.

**Q.** What about the MIC (NRS123, passage 10, selection group DAP + TR-705) of the same molecule?
**A.** Its MIC is 0.125 µg/mL.

**Q.** And the MIC (NRS123, passage 10, selection group DAP + VAN)?
**A.** The MIC was 0.0625 µg/mL.

**Q.** What about the MIC (NRS123, passage 15, selection group DAP) of the same molecule?
**A.** Its MIC is 0.125 µg/mL (≈ 0.294 µM).

**Q.** What about the MIC (NRS123, passage 15, selection group DAP + CLI) of the same molecule?
**A.** Its MIC is 0.0625 µg/mL.

**Q.** And the MIC (NRS123, passage 15, selection group DAP + LZD)?
**A.** The MIC was 0.125 µg/mL.

**Q.** What about the MIC (NRS123, passage 15, selection group DAP + TET) of the same molecule?
**A.** The MIC was 0.0313 µg/mL.

**Q.** And the MIC (NRS123, passage 15, selection group DAP + TIA)?
**A.** Its MIC is 0.0625 µg/mL.

**Q.** And the MIC (NRS123, passage 15, selection group DAP + TMP/SMX)?
**A.** Its MIC is 0.125 µg/mL.

**Q.** What about the MIC (NRS123, passage 15, selection group DAP + TR-700) of the same molecule?
**A.** Its MIC is 0.125 µg/mL.

**Q.** What about the MIC (NRS123, passage 15, selection group DAP + TR-705) of the same molecule?
**A.** Its MIC is 0.0625 µg/mL.

**Q.** And the MIC (NRS123, passage 15, selection group DAP + VAN)?
**A.** The MIC was 0.125 µg/mL.

**Q.** And the MIC (NRS123, passage 20, selection group DAP)?
**A.** The MIC was 0.0625 µg/mL (≈ 0.147 µM).

**Q.** What about the MIC (NRS123, passage 20, selection group DAP + CLI) of the same molecule?
**A.** The MIC was 0.0625 µg/mL.

**Q.** And the MIC (NRS123, passage 20, selection group DAP + LZD)?
**A.** Its MIC is 0.125 µg/mL.

**Q.** What about the MIC (NRS123, passage 20, selection group DAP + TET) of the same molecule?
**A.** Its MIC is 0.0313 µg/mL.

**Q.** And the MIC (NRS123, passage 20, selection group DAP + TIA)?
**A.** The MIC was 0.0625 µg/mL.

**Q.** What about the MIC (NRS123, passage 20, selection group DAP + TMP/SMX) of the same molecule?
**A.** Its MIC is 0.125 µg/mL.

**Q.** And the MIC (NRS123, passage 20, selection group DAP + TR-700)?
**A.** The MIC was 0.125 µg/mL.

**Q.** And the MIC (NRS123, passage 20, selection group DAP + TR-705)?
**A.** The MIC was 0.0625 µg/mL.

**Q.** What about the MIC (NRS123, passage 20, selection group DAP + VAN) of the same molecule?
**A.** Its MIC is 0.125 µg/mL.

**Q.** What about the MIC (NRS123, passage 25, selection group DAP) of the same molecule?
**A.** The MIC was 0.125 µg/mL (≈ 0.294 µM).

**Q.** And the MIC (NRS123, passage 25, selection group DAP + CLI)?
**A.** Its MIC is 0.0625 µg/mL.

**Q.** And the MIC (NRS123, passage 25, selection group DAP + LZD)?
**A.** Its MIC is 0.0625 µg/mL.

**Q.** What about the MIC (NRS123, passage 25, selection group DAP + TET) of the same molecule?
**A.** The MIC was 0.0313 µg/mL.

**Q.** And the MIC (NRS123, passage 25, selection group DAP + TIA)?
**A.** Its MIC is 0.0625 µg/mL.

**Q.** What about the MIC (NRS123, passage 25, selection group DAP + TMP/SMX) of the same molecule?
**A.** Its MIC is 0.125 µg/mL.

**Q.** And the MIC (NRS123, passage 25, selection group DAP + TR-700)?
**A.** Its MIC is 0.125 µg/mL.

**Q.** And the MIC (NRS123, passage 25, selection group DAP + TR-705)?
**A.** Its MIC is 0.0625 µg/mL.

**Q.** What about the MIC (NRS123, passage 25, selection group DAP + VAN) of the same molecule?
**A.** The MIC was 0.125 µg/mL.

**Q.** What about the MIC (NRS123, passage 30, selection group DAP) of the same molecule?
**A.** Its MIC is 0.125 µg/mL (≈ 0.294 µM).

**Q.** And the MIC (NRS123, passage 30, selection group DAP + CLI)?
**A.** The MIC was 0.0625 µg/mL.

**Q.** What about the MIC (NRS123, passage 30, selection group DAP + LZD) of the same molecule?
**A.** The MIC was 0.0625 µg/mL.

**Q.** What about the MIC (NRS123, passage 30, selection group DAP + TET) of the same molecule?
**A.** The MIC was 0.0313 µg/mL.

**Q.** What about the MIC (NRS123, passage 30, selection group DAP + TIA) of the same molecule?
**A.** Its MIC is 0.125 µg/mL.

**Q.** And the MIC (NRS123, passage 30, selection group DAP + TMP/SMX)?
**A.** Its MIC is 0.125 µg/mL.

**Q.** What about the MIC (NRS123, passage 30, selection group DAP + TR-700) of the same molecule?
**A.** The MIC was 0.125 µg/mL.

**Q.** And the MIC (NRS123, passage 30, selection group DAP + TR-705)?
**A.** Its MIC is 0.125 µg/mL.

**Q.** What about the MIC (NRS123, passage 30, selection group DAP + VAN) of the same molecule?
**A.** The MIC was 0.0625 µg/mL.

**Q.** And the MIC (NRS123, read-out: DAP MIC by the end of the experiment (selection of DAP^ns strains), MW2, passaged with DAP alone or with co-selecting agent at ¼ MIC, CLSI breakpoint)?
**A.** Its MIC is > 1 µg/mL.
